# pIC50, pKd: −log10 of the molar value. “Also recorded” adds a separate entry of the source.
# Experiments:
# monomeric ClpB = target: monomeric ClpB; design: method as in PMID 10982797; settings: read-out: Kd of monomeric ClpB toward ATP; cited from earlier work
# wt ClpB = target: T1, wt ClpB (Escherichia coli, UniProt P63284); assay: Surface plasmon resonance, immobilized wt ClpB; type: binding; settings: SPR, preliminary; read-out: dissociation constant, control titration of immobilized ClpB
# T1 construct: made in house
# T1 sequence (P63284 whole entry): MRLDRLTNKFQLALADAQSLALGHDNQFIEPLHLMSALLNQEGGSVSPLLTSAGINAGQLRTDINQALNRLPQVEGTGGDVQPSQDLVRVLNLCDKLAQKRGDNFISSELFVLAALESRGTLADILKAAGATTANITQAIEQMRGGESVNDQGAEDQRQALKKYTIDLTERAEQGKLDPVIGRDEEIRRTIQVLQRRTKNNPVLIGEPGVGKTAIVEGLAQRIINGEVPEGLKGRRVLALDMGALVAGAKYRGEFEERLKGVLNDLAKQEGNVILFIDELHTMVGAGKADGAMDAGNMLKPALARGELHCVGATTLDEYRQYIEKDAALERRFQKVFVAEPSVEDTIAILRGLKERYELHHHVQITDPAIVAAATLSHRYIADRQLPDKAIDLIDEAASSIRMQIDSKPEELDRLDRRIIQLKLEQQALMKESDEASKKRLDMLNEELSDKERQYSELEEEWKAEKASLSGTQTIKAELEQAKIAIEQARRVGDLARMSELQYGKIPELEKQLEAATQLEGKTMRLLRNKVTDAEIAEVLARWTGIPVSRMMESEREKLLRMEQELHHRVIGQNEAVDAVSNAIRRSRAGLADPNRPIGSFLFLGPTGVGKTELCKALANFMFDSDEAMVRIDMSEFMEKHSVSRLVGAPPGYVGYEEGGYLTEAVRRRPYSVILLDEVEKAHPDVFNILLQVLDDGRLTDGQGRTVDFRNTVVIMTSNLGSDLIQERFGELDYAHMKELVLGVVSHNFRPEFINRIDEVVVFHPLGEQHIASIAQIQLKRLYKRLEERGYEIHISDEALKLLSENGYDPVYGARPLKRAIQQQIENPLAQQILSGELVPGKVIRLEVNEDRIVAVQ
# Protocol: ClpB, DnaK, and the NBD of DnaK were extensively dialyzed against the SPR buffer (20-mM Hepes, pH 7.4, 150-mM NaCl, 20-mM MgCl2, 1-mM EDTA, 1-mM DTT). After dialysis, the protein concentration was determined by the Bradford method. The DBeQ–protein interactions were studied using a Biacore T200 instrument (GE Healthcare) at 25 °C. The proteins were diluted to 300 μg/ml in 10-mM sodium acetate buffer (pH 5 for ClpB DnaK or pH 4 for NBD) and immobilized on HC1500M sensor chips (Xantec) by standard amine coupling chemistry as described previously ([70]). A reference flow cell was created by ethyl(dimethylaminopropyl) carbodiimide/N-hydroxysuccinimide activation followed by quenching with 1 M ethanolamine (pH 9.0). Solvent correction curves were obtained at the beginning and end and after every 50 injection cycles by injecting varying DMSO concentrations (4.0, 4.4, 4.6, 4.8, 5.0, 5.2, 5.4, and 5.9% [v/v]). All experiments were performed using a flow rate of 30 μl/min.
# Binding isotherms were obtained with the ligand diluted to different concentrations in the SPR running buffer HBSMTD (20-mM Hepes, pH 7.4, 140-mM NaCl, 20-mM MgCl2, 5% (v/v) DMSO, 0.005% (v/v) Tween-20). Replicate injections were performed for all samples, and a buffer-only injection was performed for every 12 injection cycles. To test the structural integrity of ClpB after immobilization on the sensor chips, we performed control titrations with ATPγS and adenosine. The dissociation constants determined from those experiments were ∼20 μM for ATPγS and ∼2 mM for adenosine. […] Moreover, the immobilized ClpB discriminated between a nucleotide analog and a nucleoside, which indicated an adequate structural integrity of ClpB on the sensor chips.
# The resulting sensorgrams were analyzed using Biacore T200 Evaluation Software v3.0 according to the following procedure. Solvent correction curves were generated and applied to all data sets, and all sensorgrams were double-referenced by subtracting the most recent buffer blank injection. The signal immediately before injection stop of these corrected sensorgrams was treated as the binding response. GraphPad Prism was used for nonlinear least-squares fitting of the model assuming either noncooperative or cooperative binding of DBeQ to DnaK and ClpB, respectively.
# p97 = test system: p97; design: method as in PMID 25685910; settings: cited from earlier work
# E. coli ClpB = target: T2, E. coli ClpB (Escherichia coli, UniProt P63284); type: biochemical; settings: 100 μM compound, 37 °C; for inhibition of the basal ClpB ATPase: no casein; for inhibition of the ClpB ATPase in the presence of casein: with κ-casein
# T2 construct: made in house
# T2 sequence (P63284 whole entry): as above
# Protocol: To determine the ATPase activity, ClpB was diluted to 28 μg/ml (49-nM hexamer) in buffer C (50-mM Tris-HCl, pH 7.4, 20-mM MgCl2, 1-mM EDTA, 0.5-mM tris(2-carboxyethyl)phosphine [TCEP]). In some experiments, the ClpB solution was supplemented with 17.4 μg/ml (10 μM) κ-casein. The ClpB aliquots (18 μl) were mixed with 1 μl of the investigated compounds at different concentrations in 100% DMSO or with DMSO as a control. A sample without ClpB was used as a baseline control. After a 10-min preincubation at 37 or 45 °C, the ATP hydrolysis reaction was initiated by adding 1 μl of 100-mM ATP. The samples were incubated for 60 min (basal ClpB activity in the absence of κ-casein) or 15 min (in the presence of κ-casein) at 37 °C or 30 min at 45 °C in the absence of casein. For the E678Q ClpB variant, the incubation time in the presence of κ-casein was 60 min. After incubation, 15 μl of each sample was mixed with 200 μl of the ammonium molybdate/malachite green reagent ([67]) dispensed into a 96-well plate, followed by an addition of 30 μl of 34% sodium citrate ([68]). The plate was agitated inside a Synergy H1 reader (BioTek, Winooski, VT) for 15 min at room temperature, and the samples’ absorbance was measured at 630 nm. The readouts for ClpB-containing samples were corrected for absorbance of samples without ClpB, to account for nonenzymatic production of inorganic phosphate. A standard curve obtained with different inorganic phosphate concentrations was used to determine the amount of phosphate produced from ATP in the presence of ClpB.
Structure (SMILES),pKd (monomeric ClpB),pKd (wt ClpB),pIC50 (p97),inhibition of the basal ClpB ATPase (E. coli ClpB),inhibition of the ClpB ATPase in the presence of casein (E. coli ClpB)
Nc1ncnc2c1ncn2[C@@H]1O[C@H](COP(=O)(O)OP(=O)(O)OP(=O)(O)O)[C@@H](O)[C@H]1O [ATP],< 3.00,–,–,–,–
Nc1ncnc2c1ncn2[C@@H]1O[C@H](CO[P@](=O)(O)O[P@](=O)(O)O[P@@](=O)(O)S)[C@@H](O)[C@H]1O [ATPγS],–,~4.70,–,–,–
COc1cccc2c(NCc3ccccc3)nc(-n3c(N)nc4ccccc43)nc12 [ML240],–,–,~7.00,"None of the above compounds, except C3, showed a significant inhibition",loss of potency toward ClpB; also recorded: only C3 and DBeQ strongly inhibited
Cc1cc(OCc2nnc(SC3CCCC3)n2-c2cccnc2)ccc1-c1ccc(S(C)(=O)=O)cc1 [NMS-873],–,–,~7.70,"None of the above compounds, except C3, showed a significant inhibition",only C3 and DBeQ strongly inhibited
Nc1ncnc2c1ncn2[C@@H]1O[C@H](CO)[C@@H](O)[C@H]1O [adenosine],–,~2.70,–,–,–
